Laboratory results as given in patent publication US12435044B2, “Pyridazinone herbicides and pyridazinone intermediates used to prepare a herbicide” (FMC Corporation, priority 2018, dated 2025).

Experiments:
Assay in all cases: Test C pre-/postemergence greenhouse test
Format in all cases: in vivo
[1] = system: ryegrass, Italian (Lolium multiflorum); settings: scale 0 to 100
Excerpt: (§1) Seeds of plant species selected from blackgrass (Alopecurus myosuroides), ryegrass, Italian (Lolium multiflorum), wheat, winter (winter wheat, Triticum aestivum), galium (catchweed bedstraw, Galium aparine), corn (Zea mays), crabgrass, large (Digitaria sanguinalis), foxtail, giant (Setaria faberii), johnsongrass (Sorghum halepense), lambsquarters (Chenopodium album), morningglory (Ipomoea coccinea), nutsedge, yellow (Cyperus esculentus), pigweed (Amaranthus retroflexus), ragweed (common ragweed, Ambrosia elatior), soybean (Glycine max), barnyardgrass (Echinochloa crus-galli), oilseed rape (Brassica napus), waterhemp (common waterhemp, Amaranthus rudis), pigweed, palmer (Amaranthus palmeri), kochia (Kochia scoparia), oat, wild (Avena fatua), surinam grass (Brachiaria decumbens), windgrass (Apera spica-venti), poinsettia, wild (Euphorbia heterophylla) and velvetleaf (Abutilon theophrasti) were planted into a silt loam soil and treated preemergence with test chemicals formulated in a non-phytotoxic solvent mixture which included a surfactant.
(§2) At the same time, plants selected from these crop and weed species and also chickweed (common chickweed, Stellaria media), buckwheat, wild (Polygonum convolvulus), mustard, wild (Sinapis arvensis), field poppy (Papaver rhoeas), field violet (Viola arvensis), nightshade (eastern black nightshade, Solanum ptycanthum), speedwell (bird's-eye speedwell, Veronica persica), horseweed (Conyza canadensis), cutleaf geranium (Geranium dissectum), and Canada thistle (Cirsium arvense) were planted in pots containing Redi-Earth® planting medium (Scotts Company, 14111 Scottslawn Road, Marysville, Ohio 43041) comprising spaghnum peat moss, vermiculite, wetting agent and starter nutrients and treated with postemergence applications of test chemicals formulated in the same manner. Plants ranged in height from 2 to 18 cm (1- to 4-leaf stage) for postemergence treatments. Treated plants and controls were maintained in a greenhouse for 13 to 21 d, after which time all species were compared to controls and visually evaluated. Plant response ratings, summarized in Table C-1 (postemergence) and C-2 (preemergence), are based on a scale of 0 to 100 where 0 is no effect and 100 is complete control. A dash (-) response means no test result.

[2] = system: nutsedge, yellow (Cyperus esculentus); settings: scale 0 to 100
Excerpt: as §1, §2

[3] = system: kochia (Kochia scoparia); settings: Postemergence, scale 0 to 100
Excerpt: as §1, §2

[4] = system: corn (Zea mays); settings: scale 0 to 100
Excerpt: as §1, §2

[5] = system: lambsquarters (Chenopodium album); settings: scale 0 to 100
Excerpt: as §1, §2

[6] = system: foxtail, giant (Setaria faberii); settings: scale 0 to 100
Excerpt: as §1, §2

[7] = system: soybean (Glycine max); settings: scale 0 to 100
Excerpt: as §1, §2

[8] = system: johnsongrass (Sorghum halepense); settings: scale 0 to 100
Excerpt: as §1, §2

[9] = system: crabgrass, large (Digitaria sanguinalis); settings: scale 0 to 100
Excerpt: as §1, §2

[10] = system: galium (catchweed bedstraw, Galium aparine); settings: scale 0 to 100
Excerpt: as §1, §2

Cc1ccc2ccc(C)c(-c3c(O)c(Cl)nn(C)c3=O)c2c1 [Cpd. No. 20, 6-chloro-4-(2,7-dimethyl-1-naphthalenyl)-5-hydroxy-2-methyl-3(2H)-pyridazinone]
95: Plant response rating, Ryegrass, Italian ([1]; Postemergence, 62 g ai/ha) | Plant response rating, Ryegrass, Italian ([1]; Postemergence, 125 g ai/ha) | Plant response rating, Nutsedge, Yellow ([2]; Postemergence, 62 g ai/ha) | Plant response rating, Nutsedge, Yellow ([2]; Preemergence, 31 g ai/ha) | Plant response rating, Nutsedge, Yellow ([2]; Preemergence, 62 g ai/ha) | Plant response rating, Lambsquarters ([5]; Postemergence, 62 g ai/ha) | Plant response rating, Lambsquarters ([5]; Postemergence, 125 g ai/ha) | Plant response rating, Foxtail, Giant ([6]; Postemergence, 125 g ai/ha) | Plant response rating, Crabgrass, Large ([9]; Preemergence, 62 g ai/ha) | Plant response rating, Galium ([10]; Postemergence, 16 g ai/ha) | Plant response rating, Galium ([10]; Postemergence, 31 g ai/ha) | Plant response rating, Galium ([10]; Postemergence, 62 g ai/ha) | Plant response rating, Galium ([10]; Postemergence, 125 g ai/ha)
20: Plant response rating, Corn ([4]; Postemergence, 125 g ai/ha) | Plant response rating, Soybean ([7]; Postemergence, 125 g ai/ha) | Plant response rating, Soybean ([7]; Preemergence, 62 g ai/ha)
90: Plant response rating, Nutsedge, Yellow ([2]; Postemergence, 16 g ai/ha) | Plant response rating, Nutsedge, Yellow ([2]; Postemergence, 31 g ai/ha) | Plant response rating, Kochia ([3]; 62 g ai/ha) | Plant response rating, Lambsquarters ([5]; Postemergence, 31 g ai/ha)
80: Plant response rating, Kochia ([3]; 16 g ai/ha) | Plant response rating, Lambsquarters ([5]; Preemergence, 61 g ai/ha) | Plant response rating, Crabgrass, Large ([9]; Postemergence, 125 g ai/ha)
65: Plant response rating, Ryegrass, Italian ([1]; Postemergence, 16 g ai/ha) | Plant response rating, Johnsongrass ([8]; Preemergence, 125 g ai/ha)
70: Plant response rating, Foxtail, Giant ([6]; Postemergence, 16 g ai/ha) | Plant response rating, Crabgrass, Large ([9]; Postemergence, 62 g ai/ha)
10: Plant response rating, Soybean ([7]; Postemergence, 31 g ai/ha) | Plant response rating, Soybean ([7]; Postemergence, 62 g ai/ha) | Plant response rating, Johnsongrass ([8]; Postemergence, 31 g ai/ha)
85: Plant response rating, Ryegrass, Italian ([1]; Postemergence, 31 g ai/ha) | Plant response rating, Kochia ([3]; 31 g ai/ha) | Plant response rating, Foxtail, Giant ([6]; Postemergence, 31 g ai/ha) | Plant response rating, Foxtail, Giant ([6]; Postemergence, 62 g ai/ha)
35: Plant response rating, Corn ([4]; Preemergence, 125 g ai/ha) | Plant response rating, Johnsongrass ([8]; Postemergence, 125 g ai/ha) | Plant response rating, Johnsongrass ([8]; Preemergence, 61 g ai/ha)
100: Plant response rating, Ryegrass, Italian ([1]; Preemergence, 31 g ai/ha) | Plant response rating, Ryegrass, Italian ([1]; Preemergence, 62 g ai/ha) | Plant response rating, Ryegrass, Italian ([1]; Preemergence, 125 g ai/ha) | Plant response rating, Lambsquarters ([5]; Preemergence, 62 g ai/ha) | Plant response rating, Lambsquarters ([5]; Preemergence, 125 g ai/ha) | Plant response rating, Foxtail, Giant ([6]; Preemergence, 31 g ai/ha) | Plant response rating, Foxtail, Giant ([6]; Preemergence, 62 g ai/ha) | Plant response rating, Foxtail, Giant ([6]; Preemergence, 125 g ai/ha) | Plant response rating, Crabgrass, Large ([9]; Preemergence, 125 g ai/ha) | Plant response rating, Galium ([10]; Preemergence, 31 g ai/ha) | Plant response rating, Galium ([10]; Preemergence, 62 g ai/ha) | Plant response rating, Galium ([10]; Preemergence, 125 g ai/ha)
75: Plant response rating, Lambsquarters ([5]; Postemergence, 16 g ai/ha) | Plant response rating, Lambsquarters ([5]; Preemergence, 31 g ai/ha)
98: Plant response rating, Ryegrass, Italian ([1]; Preemergence, 61 g ai/ha) | Plant response rating, Nutsedge, Yellow ([2]; Postemergence, 125 g ai/ha) | Plant response rating, Nutsedge, Yellow ([2]; Preemergence, 125 g ai/ha) | Plant response rating, Kochia ([3]; 125 g ai/ha) | Plant response rating, Foxtail, Giant ([6]; Preemergence, 61 g ai/ha) | Plant response rating, Galium ([10]; Preemergence, 61 g ai/ha)
0: Plant response rating, Corn ([4]; Postemergence, 16 g ai/ha) | Plant response rating, Corn ([4]; Preemergence, 31 g ai/ha) | Plant response rating, Corn ([4]; Preemergence, 61 g ai/ha) | Plant response rating, Soybean ([7]; Postemergence, 16 g ai/ha) | Plant response rating, Soybean ([7]; Preemergence, 31 g ai/ha) | Plant response rating, Soybean ([7]; Preemergence, 61 g ai/ha)
40: Plant response rating, Nutsedge, Yellow ([2]; Preemergence, 61 g ai/ha) | Plant response rating, Johnsongrass ([8]; Preemergence, 31 g ai/ha) | Plant response rating, Crabgrass, Large ([9]; Postemergence, 16 g ai/ha) | Plant response rating, Crabgrass, Large ([9]; Postemergence, 31 g ai/ha)
5: Plant response rating, Corn ([4]; Postemergence, 31 g ai/ha) | Plant response rating, Corn ([4]; Postemergence, 62 g ai/ha) | Plant response rating, Corn ([4]; Preemergence, 62 g ai/ha) | Plant response rating, Johnsongrass ([8]; Postemergence, 16 g ai/ha)
30: Plant response rating, Johnsongrass ([8]; Postemergence, 62 g ai/ha) | Plant response rating, Johnsongrass ([8]; Preemergence, 62 g ai/ha)
60: Plant response rating, Soybean ([7]; Preemergence, 125 g ai/ha) | Plant response rating, Crabgrass, Large ([9]; Preemergence, 31 g ai/ha) | Plant response rating, Crabgrass, Large ([9]; Preemergence, 61 g ai/ha)
